From patent US4273923A, “Process for preparing aminoglycoside derivatives” (Shionogi & Co., Ltd., priority 1979, dated 1981)
Values after ≈ are worked out from the molar mass of the structure shown.

Test system: Staphylococcus epidermidis TB-172
Assay: MIC by agar dilution method
Type: cell-based
Conditions: TB172, tobramycin resistant strain, innoculum size 10^4 CFU/ml, 37° C., 18 to 20 hours, read-out: Minimum Inhibitory Concentration (MIC)

| SMILES | MIC [µg/mL] |
| --- | --- |
| NC[C@H]1O[C@H](O[C@H]2[C@H](O)[C@@H](O[C@H]3O[C@H](CO)[C@@H](O)[C@H](N)[C@H]3O)[C@H](N)C[C@@H]2N)[C@H](N)C[C@@H]1O [TOB, tobramycin] | 25 (≈ 53.5 µM) |
| NCC1=CC[C@@H](N)[C@@H](O[C@H]2[C@H](O)[C@@H](O[C@H]3O[C@H](CO)[C@@H](O)[C@H](N)[C@H]3O)[C@H](N)C[C@@H]2N)O1 [[A], O-[3-amino-3-deoxy-α-D-glucopyranosyl-(1→6)]-O-[2,6-diamino-2,3,4,6-tetradeoxy-α-D-glycero-hex-4-enopyranosyl-(1→4)]-2-deoxy-D-streptamine] | 0.1 (≈ 0.222 µM) |
